# Test results: ChEMBL document CHEMBL1221215, “A domino effect in antifolate drug action in Escherichia coli” (Nat Chem Biol, 2008)
# Calls of active or inactive are those of the source. The rule behind the calls is not given here.
# Target: T1, Dihydrofolate synthase/folylpolyglutamate synthase (Escherichia coli (strain K12)) (UniProt P08192)
# T1 sequence (whole entry): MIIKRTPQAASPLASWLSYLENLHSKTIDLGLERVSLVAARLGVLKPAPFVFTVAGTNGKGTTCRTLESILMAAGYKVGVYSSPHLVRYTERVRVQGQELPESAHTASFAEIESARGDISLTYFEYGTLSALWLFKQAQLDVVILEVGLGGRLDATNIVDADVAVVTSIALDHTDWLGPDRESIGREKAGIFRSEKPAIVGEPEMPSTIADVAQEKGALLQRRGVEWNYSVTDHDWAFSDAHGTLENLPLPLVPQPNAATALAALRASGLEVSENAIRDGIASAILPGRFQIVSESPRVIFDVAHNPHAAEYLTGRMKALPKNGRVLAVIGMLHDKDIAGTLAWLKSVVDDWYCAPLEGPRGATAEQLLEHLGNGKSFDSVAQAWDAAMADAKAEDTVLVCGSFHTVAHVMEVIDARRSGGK
# Experiment: Inhibition of Escherichia coli K-12 recombinant His-tagged folylpoly-gamma-glutamate synthetase expressed in Escherichia coli BL21 at 200 uM LC-MS/MS method
# Settings: NCM3722
row,Compound,inhibition
1,CN1c2c([nH]c(N)nc2=O)NCC1CNc1ccc(C(=O)N[C@@H](CCC(=O)O)C(=O)O)cc1 (some centres undefined),inactive
2,COc1cc(Cc2cnc(N)nc2N)cc(OC)c1OC,inactive
3,Nc1nc(=O)c2c([nH]1)NCC(CNc1ccc(C(=O)N[C@@H](CCC(=O)O)C(=O)O)cc1)=N2,Active
4,Nc1nc(=O)c2nc(CNc3ccc(C(=O)N[C@@H](CCC(=O)O)C(=O)O)cc3)cnc2[nH]1,inactive
